Results: ChEMBL document CHEMBL4346695, “Thiophenol-formaldehyde triazole causes apoptosis induction in ovary cancer cells and prevents tumor growth formation in mice model” (2019)
Active and inactive are the calls of the source. The rule behind the calls is not given here.

Legend:
Caov-3 cell line [1] = test: Induction of apoptosis in human Caov3 cells at 0.25 to 2.0 uM incubated for 48 hrs by Hoechst 33342 staining based fluorescent microscopic method; assay type: functional, cell-based
[2] = Growth inhibition of human ES2 cells at 2 uM incubated for 48 hrs by MTT assay relative to control; assay type: functional; conditions: ES-2, 48 h, read-out: GI
Homo sapiens [3] = species on record: Homo sapiens; test: Growth inhibition of human ES2 cells at 0.25 uM incubated for 48 hrs by MTT assay; assay type: functional
Caov-3 cell line [4] = test: Inhibition of metastasis in human Caov3 cells assessed as decrease in MMP9 expression level at 0.25 uM incubated for 48 hrs by Western blot analysis; assay type: functional, cell-based
Caov-3 cell line [5] = test: (§1) Antimetastasis activity against human Caov3 cells xenografted in BALB/c nude mouse assessed as reduction in infiltration of macrophages in intestinal lesions at 10 mg/kg, ip incubated for 1 hr post tumor implantation and measured after 20 days by DAB and hematoxylin staining based immunohistochemical analysis relative to control; assay type: functional; set-up: scale not given: the % may be the effect or the level left
Caov-3 cell line [6] = test: Inhibition of metastasis in human Caov3 cells assessed as decrease in FAK activation level at 0.5 uM incubated for 48 hrs by Western blot analysis; assay type: functional, cell-based
Caov-3 cell line [7] = test: Induction of Cell cycle arrest in human Caov3 cells assessed as accumulation at S phase at 1 uM incubated for 48 hrs by propidium iodide staining based flow cytometric analysis (reference value: 18.89%); assay type: functional
Caov-3 cell line [8] = test: as §1, with “liver” for “intestinal”; assay type: functional; set-up: scale not given: the % may be the effect or the level left
Caov-3 cell line [9] = test: Induction of Cell cycle arrest in human Caov3 cells assessed as accumulation at S phase at 1.5 uM incubated for 48 hrs by propidium iodide staining based flow cytometric analysis (reference value: 18.89%); assay type: functional
Caov-3 cell line [10] = test: Antiinvasive activity in human Caov3 cells at 2.0 uM incubated for 48 hrs using hematoxylin by microscopy-based transwell assay relative to control; assay type: functional
Caov-4 = test: Growth inhibition of human Caov4 cells incubated for 48 hrs by MTT assay; assay type: functional, cell-based
Caov-3 cell line [11] = test: as §1, with “peritoneal” for “intestinal”, “5” for “10”, “analysis” for “analysis relative to control”; assay type: functional, organism-based
Caov-3 cell line [12] = test: as §1, with “vWF expression” for “infiltration of macrophages”, “lungs” for “intestinal”; assay type: functional; set-up: scale not given: the % may be the effect or the level left
Caov-3 cell line [13] = test: Growth inhibition of human Caov3 cells at 2 uM incubated for 48 hrs by MTT assay relative to control; assay type: functional; conditions: Caov-3, 48 h, read-out: GI
Caov-3 cell line [14] = test: Induction of Cell cycle arrest in human Caov3 cells assessed as accumulation at G0/G1 phase at 2 uM incubated for 48 hrs by propidium iodide staining based flow cytometric analysis (reference value: 57.77%); assay type: functional
Caov-3 cell line [15] = test: Inhibition of cell migration in human Caov3 cells assessed as decrease in migration potential at 0.5 to 2.0 uM incubated for 48 hrs by wound healing assay (reference value: 89.65%); assay type: functional
Homo sapiens [16] = species on record: Homo sapiens; test: Growth inhibition of human ES2 cells incubated for 48 hrs by MTT assay; assay type: functional
Caov-3 cell line [17] = test: Antimetastasis activity against human Caov3 cells xenografted in BALB/c nude mouse assessed as reduction of metastasis in intestine at 10 mg/kg, ip incubated for 1 hr post tumor implantation and measured after 20 days by H and E staining-based assay; assay type: functional, organism-based
Caov-3 cell line [18] = test: Induction of Cell cycle arrest in human Caov3 cells assessed as accumulation at G2/M phase at 2 uM incubated for 48 hrs by propidium iodide staining based flow cytometric analysis (reference value: 22.68%); assay type: functional
Caov-3 cell line [19] = test: Induction of apoptosis in human Caov3 cells assessed as formation of apoptotic nuclei at 0.5 uM incubated for 48 hrs by Hoechst 33342 staining based fluorescent microscopic method relative to control; assay type: functional
Caov-3 cell line [20] = test: Induction of apoptosis in human Caov3 cells assessed as formation of apoptotic nuclei at 2.0 uM incubated for 48 hrs by Hoechst 33342 staining based fluorescent microscopic method; assay type: functional, cell-based
Caov-3 cell line [21] = test: Induction of apoptosis in human Caov3 cells assessed as formation of apoptotic nuclei at 1.0 uM incubated for 48 hrs by Hoechst 33342 staining based fluorescent microscopic method relative to control; assay type: functional
Caov-3 cell line [22] = test: Induction of Cell cycle arrest in human Caov3 cells assessed as accumulation at S phase at 2 uM incubated for 48 hrs by propidium iodide staining based flow cytometric analysis (reference value: 18.89%); assay type: functional
Caov-3 cell line [23] = test: Inhibition of metastasis in human Caov3 cells assessed as decrease in MMP9 expression level at 0.5 uM incubated for 48 hrs by Western blot analysis; assay type: functional, cell-based
Caov-3 cell line [24] = test: Induction of Cell cycle arrest in human Caov3 cells assessed as accumulation at G0/G1 phase at 1.5 uM incubated for 48 hrs by propidium iodide staining based flow cytometric analysis (reference value: 57.77%); assay type: functional
Caov-3 cell line [25] = test: Antimetastasis activity against human Caov3 cells xenografted in BALB/c nude mouse assessed as reduction in vWF expression in liver lesions at 5 mg/kg, ip incubated for 1 hr post tumor implantation and measured after 20 days by DAB and hematoxylin staining based immunohistochemical analysis; assay type: functional, organism-based
Caov-3 cell line [26] = test: Inhibition of metastasis in human Caov3 cells assessed as decrease in MMP2 expression level at 0.25 uM incubated for 48 hrs by Western blot analysis; assay type: functional, cell-based
Caov-3 cell line [27] = test: Induction of apoptosis in human Caov3 cells assessed as formation of apoptotic nuclei at 1.5 uM incubated for 48 hrs by Hoechst 33342 staining based fluorescent microscopic method relative to control; assay type: functional
Caov-3 cell line [28] = test: as §1, with “peritoneal” for “intestinal”; assay type: functional; set-up: scale not given: the % may be the effect or the level left
Caov-3 cell line [29] = test: Antimetastasis activity against human Caov3 cells xenografted in BALB/c nude mouse assessed as reduction in vWF expression in intestinal lesions at 5 mg/kg, ip incubated for 1 hr post tumor implantation and measured after 20 days by DAB and hematoxylin staining based immunohistochemical analysis; assay type: functional, organism-based
Caov-3 cell line [30] = test: Induction of Cell cycle arrest in human Caov3 cells assessed as accumulation at G2/M phase at 1.5 uM incubated for 48 hrs by propidium iodide staining based flow cytometric analysis (reference value: 22.68%); assay type: functional

Fc1ccccc1-n1cc(COCc2ccccc2S)nn1
Activity (Caov-3 cell line [1]): Active | inhibition of growth at 2 µM [2]: 29% | growth inhibition (GI) (Homo sapiens [3]): inactive | inhibition (Caov-3 cell line [4]): inactive | Activity (Caov-3 cell line [5]): 7% | inhibition (Caov-3 cell line [6]): Active | Activity (Caov-3 cell line [7]): 16.23% | Activity (Caov-3 cell line [8]): 8% | Activity (Caov-3 cell line [9]): 14.61% | Activity (Caov-3 cell line [10]): 8.62% | growth inhibition (GI) (Caov-4): Dose-dependent effect | Activity (Caov-3 cell line [11]): inactive | Activity (Caov-3 cell line [12]): 8% | inhibition of growth at 2 µM (Caov-3 cell line [13]): 27% | Activity (Caov-3 cell line [14]): 69.54% | inhibition (INH) (Caov-3 cell line [15]): 6.43% | growth inhibition (GI) (Homo sapiens [16]): Dose-dependent effect | Activity (Caov-3 cell line [17]): Active | Activity (Caov-3 cell line [18]): 18.08% | Activity (Caov-3 cell line [19]): 8.67% | Activity (Caov-3 cell line [20]): Active | Activity (Caov-3 cell line [21]): 21.54% | Activity (Caov-3 cell line [22]): 11.48% | inhibition (Caov-3 cell line [23]): Active | Activity (Caov-3 cell line [24]): 64.57% | Activity (Caov-3 cell line [25]): inactive | inhibition (Caov-3 cell line [26]): inactive | Activity (Caov-3 cell line [27]): 45.89% | Activity (Caov-3 cell line [28]): 5% | Activity (Caov-3 cell line [29]): inactive | Activity (Caov-3 cell line [30]): 20.07%
